Results on six compounds are retold here after ChEMBL document CHEMBL1140088, “N9-substituted 2,4-diaminoquinazolines: synthesis and biological evaluation of lipophilic inhibitors of pneumocystis carinii and toxoplasma gondii dihydrofolate reductase” (J Med Chem, 2008).

The target of experiment [1] is T1, Bifunctional dihydrofolate reductase-thymidylate synthase (Toxoplasma gondii, UniProt Q07422).
T1 sequence (Q07422 whole entry): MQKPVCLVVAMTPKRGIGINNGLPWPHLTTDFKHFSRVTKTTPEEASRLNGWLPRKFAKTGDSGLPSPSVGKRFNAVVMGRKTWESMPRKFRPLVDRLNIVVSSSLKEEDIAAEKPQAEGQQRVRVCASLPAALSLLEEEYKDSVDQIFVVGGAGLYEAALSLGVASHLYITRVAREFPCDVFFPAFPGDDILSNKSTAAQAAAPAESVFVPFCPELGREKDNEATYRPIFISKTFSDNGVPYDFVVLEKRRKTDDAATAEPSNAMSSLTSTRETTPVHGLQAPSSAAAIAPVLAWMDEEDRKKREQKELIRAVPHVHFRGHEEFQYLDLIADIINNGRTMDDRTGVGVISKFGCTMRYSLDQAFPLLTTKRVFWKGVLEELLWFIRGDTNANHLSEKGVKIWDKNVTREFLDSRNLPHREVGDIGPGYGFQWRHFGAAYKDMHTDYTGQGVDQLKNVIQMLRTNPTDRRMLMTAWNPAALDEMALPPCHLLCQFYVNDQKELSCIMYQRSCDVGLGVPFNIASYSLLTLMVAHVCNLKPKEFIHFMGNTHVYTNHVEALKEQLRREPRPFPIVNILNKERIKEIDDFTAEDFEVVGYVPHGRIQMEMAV
Description: Inhibition of Toxoplasma gondii dihydrofolate reductase

Experiment [2] addresses T2, Dihydrofolate reductase (Mycobacterium avium, UniProt O30463).
T2 sequence (O30463 whole entry): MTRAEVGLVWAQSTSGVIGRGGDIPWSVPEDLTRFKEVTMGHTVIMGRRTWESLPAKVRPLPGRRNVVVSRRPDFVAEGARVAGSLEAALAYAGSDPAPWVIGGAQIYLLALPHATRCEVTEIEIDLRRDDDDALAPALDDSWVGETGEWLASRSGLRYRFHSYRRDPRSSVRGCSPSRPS
The experiment can be described thus: Inhibition of Mycobacterium avium dihydrofolate reductase.

The target of experiment [3] is T3, Dihydrofolate reductase (Rattus norvegicus, UniProt Q920D2).
T3 sequence (Q920D2 whole entry): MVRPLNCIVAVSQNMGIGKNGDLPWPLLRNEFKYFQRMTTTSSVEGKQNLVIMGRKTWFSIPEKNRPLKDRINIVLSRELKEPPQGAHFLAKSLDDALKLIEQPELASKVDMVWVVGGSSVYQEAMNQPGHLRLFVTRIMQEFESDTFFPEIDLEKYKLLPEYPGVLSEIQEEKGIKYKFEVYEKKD
Description: Inhibition of rat liver dihydrofolate reductase

Experiment [4] has as its target T4, Dihydrofolate reductase (Pneumocystis carinii, UniProt P16184).
T4 sequence (P16184 whole entry): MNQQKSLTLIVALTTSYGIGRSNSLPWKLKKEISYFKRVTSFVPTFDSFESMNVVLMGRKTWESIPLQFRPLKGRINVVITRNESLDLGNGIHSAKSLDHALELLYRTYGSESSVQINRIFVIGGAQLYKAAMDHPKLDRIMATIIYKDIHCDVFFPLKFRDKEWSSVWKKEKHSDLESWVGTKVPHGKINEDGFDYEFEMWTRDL
Description: Inhibition of Pneumocystis carinii dihydrofolate reductase

Each structure is given as a SMILES string.

Regarding `CCCN(Cc1cc(OC)ccc1OC)c1ccc2nc(N)nc(N)c2c1`, the IC50 in experiment [1] is 9.5 nM; against Dihydrofolate reductase [2], 3.3 nM; against Dihydrofolate reductase [3] it was 5.3 nM; against Dihydrofolate reductase [4], 38 nM.

As to `CCN(Cc1ccccc1)c1ccc2nc(N)nc(N)c2c1`, the IC50 was found to be 3.6 nM in experiment [1], 4.1 nM against Dihydrofolate reductase [3] and 21 nM at Dihydrofolate reductase [4].

As for `CCN(Cc1cccc2ccccc12)c1ccc2nc(N)nc(N)c2c1`, the IC50 came out at 7.8 nM in experiment [1], 2.9 nM on Dihydrofolate reductase [2], 6.5 nM on Dihydrofolate reductase [3] and 2.5 nM against Dihydrofolate reductase [4].

As to `CCN(Cc1cc(OC)ccc1OC)c1ccc2nc(N)nc(N)c2c1`, the half-inhibitory concentration (IC50) in experiment [1] amounted to 3.7 nM; against Dihydrofolate reductase [2], 0.98 nM; at Dihydrofolate reductase [3] it was 4.8 nM; against Dihydrofolate reductase [4], 9.9 nM.

`CCN(Cc1cc(Cl)cc(Cl)c1Cl)c1ccc2nc(N)nc(N)c2c1`: the half-inhibitory concentration (IC50) was found to be 19 nM in experiment [1], 14 nM on Dihydrofolate reductase [2], 19 nM against Dihydrofolate reductase [3] and 6.9 nM on Dihydrofolate reductase [4].

For the compound `CCN(Cc1ccc2ccccc2c1)c1ccc2nc(N)nc(N)c2c1`, the IC50 in experiment [1] was 12 nM; against Dihydrofolate reductase [2], 2.3 nM; at Dihydrofolate reductase [3], 14.5 nM; against Dihydrofolate reductase [4] it was 7.2 nM.
